Earlier results on 1 molecule are cited in patent US20190125940A1, “STENTS FOR THE RELEASE OF ACTIVE PRINCIPLES” (CID S.p.A., priority 2016, published 2019).

For the series the following is noted: related to complete in vitro release at 30 hours; Eurointervention 2012; 7:1087-1094.

Each structure is given as a SMILES string.

`CO[C@H]1C[C@@H]2CC[C@@H](C)[C@@](O)(O2)C(=O)C(=O)N2CCCC[C@H]2C(=O)O[C@H]([C@H](C)C[C@@H]2CC[C@@H](O)[C@H](OC)C2)CC(=O)[C@H](C)/C=C(\C)[C@@H](O)[C@@H](OC)C(=O)[C@H](C)C[C@H](C)/C=C/C=C/C=C/1C` [Sirolimus]: the “in vivo release after coronary implantation” value was “greater than 30 days”.
